Experimental data: PubChem BioAssay AID256 (DTP/NCI, 2004)
Values joined by “and” are separate entries in the source; they are usually repeats but may differ in a detail not shown here. Equal entries are not always repeated. Inconclusive results and toxic doses are left out.

Test system: CD2F1 mice, L1210 leukemia ip, survival T/C
Experiment: NCI In Vivo Anticancer Drug Screen. Data for tumor model L1210 Leukemia (intraperitoneal) in CD2F1 (CDF1) mice
Details: higher = longer survival
Method in brief: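 Read-out first: treated-group measurement over vehicle-control measurement, expressed as a ratio. Animals bore a transplanted tumor line and were dosed with compound or vehicle.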

[1] = endpoint: mean survival time, dose: 100.0 mg/kg/injection, schedule: Q01DX009 (ip), vehicle: saline with Tween-80
[2] = endpoint: mean survival time, dose: 200.0 mg/kg/injection, schedule: Q01DX009 (ip), vehicle: saline with Tween-80
[3] = endpoint: mean survival time, dose: 100.0 mg/kg/injection, schedule: Q01DX001 (ip), vehicle: saline with Tween-80
[4] = endpoint: mean survival time, dose: 200.0 mg/kg/injection, schedule: Q01DX001 (ip), vehicle: saline with Tween-80
[5] = endpoint: mean survival time, dose: 400.0 mg/kg/injection, schedule: Q01DX001 (ip), vehicle: saline with Tween-80
[6] = endpoint: mean survival time, dose: 100.0 mg/kg/injection, schedule: Q04DX003 (ip), vehicle: saline
[7] = endpoint: mean survival time, dose: 100.0 mg/kg/injection, schedule: Q04DX003 (ip), vehicle: saline with Tween-80
[8] = endpoint: mean survival time, dose: 200.0 mg/kg/injection, schedule: Q04DX003 (ip), vehicle: saline with Tween-80
[9] = endpoint: mean survival time, dose: 400.0 mg/kg/injection, schedule: Q01DX009 (ip), vehicle: saline with Tween-80
[10] = endpoint: mean survival time, dose: 400.0 mg/kg/injection, schedule: Q04DX003 (ip), vehicle: saline with Tween-80
[11] = endpoint: mean survival time, dose: 100.0 mg/kg/injection, schedule: Q04DX002 (ip), vehicle: saline with Tween-80
[12] = endpoint: mean survival time, dose: 200.0 mg/kg/injection, schedule: Q04DX002 (ip), vehicle: saline with Tween-80
[13] = endpoint: mean survival time, dose: 400.0 mg/kg/injection, schedule: Q04DX002 (ip), vehicle: saline with Tween-80
[14] = endpoint: mean survival time, dose: 25.0 mg/kg/injection, schedule: Q04DX003 (ip), vehicle: saline
[15] = endpoint: mean survival time, dose: 50.0 mg/kg/injection, schedule: Q04DX003 (ip), vehicle: saline
[16] = endpoint: mean survival time, dose: 50.0 mg/kg/injection, schedule: Q01DX009 (ip), vehicle: saline with Tween-80

With `CC(=O)Nc1ccccc1C(C)=O` the T/C [1] was 110 % of control and the T/C [2] was 109 % of control.
For `CCOC(=O)N1Cc2cc3ccc(OC)cc3nc2C1`, the T/C [3] was 98 % of control, the T/C [4] was 101 % of control and the T/C [5] was 103 % of control.
`Cc1ccc(O)c(C)n1` was tested, and the T/C [6] was 104 % of control, the T/C (endpoint: mean survival time, dose: 200.0 mg/kg/injection, schedule: Q04DX003 (ip), vehicle: saline) was 98 % of control and the T/C (endpoint: mean survival time, dose: 400.0 mg/kg/injection, schedule: Q04DX003 (ip), vehicle: saline) was 97 % of control.
In the case of `Cc1cc(C)c(C)c(C(O)(C(=O)O)c2ccccc2)c1` (stereo not drawn), the T/C [1] is reported as 100 % of control, the T/C [7] is reported as 97 % of control and the T/C [2] is reported as 88 % of control. For the same compound, the T/C [8] was 101 % of control, the T/C [9] was 96 % of control and the T/C [10] was 92 % of control.
For `O=C1CCC(=O)ON=c2ccc(cc2)=NO1`, the T/C (endpoint: mean survival time, dose: 50.0 mg/kg/injection, schedule: Q01DX009 (ip), vehicle: saline) was 98 % of control, the T/C (endpoint: mean survival time, dose: 100.0 mg/kg/injection, schedule: Q01DX009 (ip), vehicle: saline) was 102 % of control and the T/C (endpoint: mean survival time, dose: 200.0 mg/kg/injection, schedule: Q01DX009 (ip), vehicle: saline) was 90 % of control.
With `O=C1CSC(=O)N1` the T/C [7] was 94 % of control, the T/C [8] was 93 % of control and the T/C [10] was 92 % of control.
`CCOC(=O)C1(C(=O)OCC)C(C)CC(OCC)N1C(=O)c1cc2c(cc1[N+](=O)[O-])OCO2` (stereo not drawn) was tested, and the T/C (endpoint: mean survival time, dose: 100.0 mg/kg/injection, schedule: Q01DX001 (ip), vehicle: Klucel (hydroxypropylcellulose) (HPC)) was 100 % of control, the T/C (endpoint: mean survival time, dose: 200.0 mg/kg/injection, schedule: Q01DX001 (ip), vehicle: Klucel (hydroxypropylcellulose) (HPC)) was 100 % of control and the T/C (endpoint: mean survival time, dose: 400.0 mg/kg/injection, schedule: Q01DX001 (ip), vehicle: Klucel (hydroxypropylcellulose) (HPC)) was 100 % of control.
For `NC(=S)c1ncn(C2OC(COC=O)C(OC=O)C2OC=O)c1NC=O` (stereo not drawn), the T/C (endpoint: mean survival time, dose: 50.0 mg/kg/injection, schedule: Q04DX002 (ip), vehicle: Klucel (hydroxypropylcellulose) (HPC)) was 121 % of control, the T/C (endpoint: mean survival time, dose: 100.0 mg/kg/injection, schedule: Q01DX009 (ip), vehicle: Klucel (hydroxypropylcellulose) (HPC)) was 151 % of control and the T/C [11] was 166 % of control. The T/C (endpoint: mean survival time, dose: 200.0 mg/kg/injection, schedule: Q01DX009 (ip), vehicle: Klucel (hydroxypropylcellulose) (HPC)) was 117 % of control, the T/C [12] was 158 % of control and the T/C (endpoint: mean survival time, dose: 400.0 mg/kg/injection, schedule: Q04DX002 (ip), vehicle: Klucel (hydroxypropylcellulose) (HPC)) was 159 % of control. The T/C [13] was 154 % of control, the T/C (endpoint: median survival time, dose: 12.5 mg/kg/injection, schedule: Q01DX009 (ip), vehicle: Klucel (hydroxypropylcellulose) (HPC)) was 111 % of control and the T/C (endpoint: median survival time, dose: 25.0 mg/kg/injection, schedule: Q01DX009 (ip), vehicle: Klucel (hydroxypropylcellulose) (HPC)) was 122 % of control. The T/C (endpoint: median survival time, dose: 200.0 mg/kg/injection, schedule: Q01DX009 (ip), vehicle: Klucel (hydroxypropylcellulose) (HPC)) was 154 % of control and 166 % of control.
With `CC(C)OC(=O)N(C(=O)OC(C)C)c1ccc(Cl)cc1` the T/C [11] was 97 % of control, the T/C [12] was 94 % of control and the T/C [13] was 102 % of control.
With `OC[C@@H]1CCCN2CCCC[C@H]12` the T/C [14] was 100 % of control, the T/C [15] was 107 % of control and the T/C [6] was 105 % of control.
`CCOC(=O)Oc1c(Cl)c(Cl)c(Cl)c(Cl)c1Cl` was tested, and the T/C [7] was 96 % of control, the T/C [8] was 96 % of control and the T/C [10] was 95 % of control.
In the case of `CCOC(=O)N1N(C(=O)c2ccccc2)C(=O)CC1(C)C`, the T/C (endpoint: mean survival time, dose: 100.0 mg/kg/injection, schedule: Q01DX001 (ip), vehicle: other) is reported as 95 % of control, the T/C (endpoint: mean survival time, dose: 200.0 mg/kg/injection, schedule: Q01DX001 (ip), vehicle: other) is reported as 116 % of control and the T/C (endpoint: mean survival time, dose: 400.0 mg/kg/injection, schedule: Q01DX001 (ip), vehicle: other) is reported as 98 % of control.
With `CC(=O)c1ccc[n+](Cc2c(Cl)cccc2Cl)c1` the T/C (endpoint: mean survival time, dose: 12.5 mg/kg/injection, schedule: Q04DX003 (ip), vehicle: saline) was 107 % of control, the T/C [14] was 98 % of control and the T/C [15] was 96 % of control.
In the case of `CCCCN1CCCC(O)C1` (stereo not drawn), the T/C [16] is reported as 100 % of control, the T/C [1] is reported as 100 % of control and the T/C [2] is reported as 103 % of control.
For `COc1ccc(OC)c(C(=O)CCl)c1`, the T/C [1] was 100 % of control, the T/C [7] was 96 % of control and the T/C [2] was 102 % of control. For the same compound, the T/C [8] was 101 % of control and the T/C [10] was 92 % of control.
In the case of `CSc1nc(NC2OC(CO)C(O)C(O)C2O)cc(=O)[nH]1` (stereo not drawn), the T/C (endpoint: median survival time, dose: 12.5 mg/kg/injection, schedule: Q01DX005 (ip), vehicle: saline) is reported as 102 % of control, the T/C (endpoint: median survival time, dose: 25.0 mg/kg/injection, schedule: Q01DX005 (ip), vehicle: saline) is reported as 100 % of control and the T/C (endpoint: median survival time, dose: 50.0 mg/kg/injection, schedule: Q01DX005 (ip), vehicle: saline) is reported as 100 % of control. For the same compound, the T/C (endpoint: median survival time, dose: 100.0 mg/kg/injection, schedule: Q01DX005 (ip), vehicle: saline) was 100 % of control and the T/C (endpoint: median survival time, dose: 200.0 mg/kg/injection, schedule: Q01DX005 (ip), vehicle: saline) was 102 % of control.
With `COC(=O)C1CCCCCC1=O` (stereo not drawn) the T/C [7] was 96 % of control, the T/C [8] was 94 % of control and the T/C [10] was 88 % of control.
For `CCCCC(CC)CNCCOC(=O)c1ccc([N+](=O)[O-])cc1` (stereo not drawn), the T/C (endpoint: mean survival time, dose: 75.0 mg/kg/injection, schedule: Q01DX001 (ip), vehicle: saline) was 97 % of control, the T/C (endpoint: mean survival time, dose: 150.0 mg/kg/injection, schedule: Q01DX001 (ip), vehicle: saline) was 100 % of control and the T/C (endpoint: mean survival time, dose: 300.0 mg/kg/injection, schedule: Q01DX001 (ip), vehicle: saline) was 102 % of control.
`CCCC(C)c1ccccc1O` (stereo not drawn) was tested, and the T/C (endpoint: mean survival time, dose: 25.0 mg/kg/injection, schedule: Q01DX009 (ip), vehicle: saline with Tween-80) was 102 % of control, the T/C [14] was 97 % of control and the T/C [16] was 98 % of control. The T/C [15] was 105 % of control, the T/C [1] was 92 % of control and the T/C [6] was 94 % of control.
In the case of `COC1OCC(N=[N+]=[N-])C(OS(C)(=O)=O)C1OS(C)(=O)=O` (stereo not drawn), the T/C [3] is reported as 95 % of control, the T/C [1] is reported as 101 % of control and the T/C [4] is reported as 98 % of control and 94 % of control. For the same compound, the T/C [5] was 94 % of control and 101 % of control and the T/C [9] was 97 % of control.
In the case of `O=C1C(c2ccccc2)=C(c2ccccc2)c2c(-c3ccccc3)ccc(-c3ccccc3)c21`, the T/C [7] is reported as 89 % of control, the T/C [8] is reported as 100 % of control and the T/C [10] is reported as 94 % of control.
In the case of `CCCCCCCCCCCCCCCC[n+]1ccc(C(N)=O)cc1`, the T/C (endpoint: mean survival time, dose: 12.5 mg/kg/injection, schedule: Q01DX009 (ip), vehicle: saline with Tween-80) is reported as 105 % of control, the T/C (endpoint: mean survival time, dose: 12.5 mg/kg/injection, schedule: Q04DX003 (ip), vehicle: saline with Tween-80) is reported as 100 % of control and the T/C (endpoint: mean survival time, dose: 25.0 mg/kg/injection, schedule: Q04DX003 (ip), vehicle: saline with Tween-80) is reported as 98 % of control. For the same compound, the T/C (endpoint: mean survival time, dose: 50.0 mg/kg/injection, schedule: Q04DX003 (ip), vehicle: saline with Tween-80) was 97 % of control.
`C(=N\Nc1nc2ccccc2o1)/c1ccncc1` was tested, and the T/C (endpoint: mean survival time, dose: 100.0 mg/kg/injection, schedule: Q04DX003 (ip), vehicle: Klucel (hydroxypropylcellulose) (HPC)) was 103 % of control, the T/C (endpoint: mean survival time, dose: 200.0 mg/kg/injection, schedule: Q04DX003 (ip), vehicle: Klucel (hydroxypropylcellulose) (HPC)) was 95 % of control and the T/C (endpoint: mean survival time, dose: 400.0 mg/kg/injection, schedule: Q04DX003 (ip), vehicle: Klucel (hydroxypropylcellulose) (HPC)) was 101 % of control.
In the case of `N#CSCc1cc(Cl)c(CSC#N)cc1Cl`, the T/C (endpoint: mean survival time, dose: 75.0 mg/kg/injection, schedule: Q04DX003 (ip), vehicle: saline) is reported as 102 % of control, the T/C (endpoint: mean survival time, dose: 150.0 mg/kg/injection, schedule: Q04DX003 (ip), vehicle: saline) is reported as 98 % of control and the T/C (endpoint: mean survival time, dose: 300.0 mg/kg/injection, schedule: Q04DX003 (ip), vehicle: saline) is reported as 102 % of control.
In the case of `O=C1/C(=C/c2ccccc2)C=C(c2ccccc2)N1Cc1ccccc1`, the T/C (endpoint: mean survival time, dose: 25.0 mg/kg/injection, schedule: Q04DX002 (ip), vehicle: saline with Tween-80) is reported as 103 % of control, the T/C (endpoint: mean survival time, dose: 50.0 mg/kg/injection, schedule: Q04DX002 (ip), vehicle: saline with Tween-80) is reported as 100 % of control and the T/C [11] is reported as 100 % of control.
For `CC1(C)N=C(N)N=C(N)N1c1cccc(OCCOc2ccc(NC(=O)CBr)cc2)c1`, the T/C (endpoint: mean survival time, dose: 6.25 mg/kg/injection, schedule: Q01DX009 (ip), vehicle: other) was 102 % of control, the T/C (endpoint: mean survival time, dose: 12.5 mg/kg/injection, schedule: Q01DX009 (ip), vehicle: other) was 113 % of control and the T/C (endpoint: mean survival time, dose: 25.0 mg/kg/injection, schedule: Q01DX009 (ip), vehicle: other) was 110 % of control. For the same compound, the T/C (endpoint: mean survival time, dose: 50.0 mg/kg/injection, schedule: Q01DX009 (ip), vehicle: other) was 113 % of control.
